This is an account of results in article PMC5218480 (PLoS ONE, 2017).

In the experiment the test system is MV-4-11 cells. In words: Gene expression microarray analysis (Affymetrix PrimeView) and GSEA. Format: cell-based, human. The arrangement: RFU PODN (11730768_x_at) / Fold change /veh PODN (11730768_x_at) / RFU LINC00158 (11744669_a_at) / Fold change /veh LINC00158 (11744669_a_at) / RFU DUSP10 (11751237_a_at) / Fold change /veh DUSP10 (11751237_a_at) / RFU ID3 (11757404_x_at) / Fold change /veh ID3 (11757404_x_at) / RFU PLEKHG5 (11737974_s_at) / Fold change /veh PLEKHG5 (11737974_s_at) / RFU LRRC4B (11730491_at) / Fold change /veh LRRC4B (11730491_at) / RFU GIMAP4 (11747438_a_at) / Fold change /veh GIMAP4 (11747438_a_at) / RFU KRT8 (11758183_x_at) / Fold change /veh KRT8 (11758183_x_at) / RFU CNN1 (11734310_a_at) / Fold change /veh CNN1 (11734310_a_at) / RFU VPS37D (11726825_at) / Fold change /veh VPS37D (11726825_at) / RFU C10orf10 (11716522_x_at) / Fold change /veh C10orf10 (11716522_x_at) / RFU KIR2DL2 /// KIR2DL4 /// KIR2DL5A /// KIR2DL5B /// KIR2DS1 /// KIR2DS2 /// KIR2DS3 /// KIR2DS4 /// KIR3DL3 /// KIR3DL3 /// KIR3DS1 (11738374_at) / Fold change /veh KIR2DL2 /// KIR2DL4 /// KIR2DL5A /// KIR2DL5B /// KIR2DS1 /// KIR2DS2 /// KIR2DS3 /// KIR2DS4 /// KIR3DL3 /// KIR3DL3 /// KIR3DS1 (11738374_at) / RFU C1QL1 (11718748_at) / Fold change /veh C1QL1 (11718748_at) / RFU TMPRSS4 (11747572_a_at) / Fold change /veh TMPRSS4 (11747572_a_at) / RFU HAMP (11756126_x_at) / Fold change /veh HAMP (11756126_x_at) / RFU RNFT2 (11725882_a_at) / Fold change /veh RNFT2 (11725882_a_at) / RFU NR4A2 (11747474_a_at) / Fold change /veh NR4A2 (11747474_a_at) / RFU ABCC12 (11746883_a_at) / Fold change /veh ABCC12 (11746883_a_at) / RFU TMEM136 (11760407_x_at) / Fold change /veh TMEM136 (11760407_x_at) / RFU CLDN22 /// WWC2 (11732394_at) / Fold change /veh CLDN22 /// WWC2 (11732394_at) / RFU HLA-DPB1 (11760878_x_at) / Fold change /veh HLA-DPB1 (11760878_x_at) / RFU SPINT1 (11716480_a_at) / Fold change /veh SPINT1 (11716480_a_at) / RFU GAP43 (11754022_s_at) / Fold change /veh GAP43 (11754022_s_at) / RFU A4GNT (11735810_at) / Fold change /veh A4GNT (11735810_at) / RFU PRB3 (11715151_x_at) / Fold change /veh PRB3 (11715151_x_at) / RFU TUBB4B (11761932_at) / Fold change /veh TUBB4B (11761932_at) / RFU CAPN14 (11732068_a_at) / Fold change /veh CAPN14 (11732068_a_at) / RFU TMCC2 (11721928_a_at) / Fold change /veh TMCC2 (11721928_a_at) / RFU IRGQ (11745062_a_at) / Fold change /veh IRGQ (11745062_a_at) / RFU FAM174B (11720279_a_at) / Fold change /veh FAM174B (11720279_a_at) / RFU TMPRSS4 (11748680_a_at) / Fold change /veh TMPRSS4 (11748680_a_at) / RFU FAM212B (11763350_a_at) / Fold change /veh FAM212B (11763350_a_at) / RFU PLEKHG5 (11743358_a_at) / Fold change /veh PLEKHG5 (11743358_a_at) / RFU ZSCAN30 (11745921_a_at) / Fold change /veh ZSCAN30 (11745921_a_at) / RFU CMKLR1 (11741424_a_at) / Fold change /veh CMKLR1 (11741424_a_at) / RFU LOC101060620 /// MAPK8IP1 (11723275_at) / Fold change /veh LOC101060620 /// MAPK8IP1 (11723275_at) / RFU SPTSSB (11747773_x_at) / Fold change /veh SPTSSB (11747773_x_at) / RFU PRSS12 (11739890_at) / Fold change /veh PRSS12 (11739890_at) / RFU BIN1 (11741810_x_at) / Fold change /veh BIN1 (11741810_x_at) / RFU WNT11 (11732464_a_at) / Fold change /veh WNT11 (11732464_a_at) / RFU C10orf10 (11716521_a_at) / Fold change /veh C10orf10 (11716521_a_at) / RFU C5orf56 (11738089_at) / Fold change /veh C5orf56 (11738089_at) / RFU CYB561 (11721691_x_at) / Fold change /veh CYB561 (11721691_x_at) / RFU ANKRD19P (11752326_a_at) / Fold change /veh ANKRD19P (11752326_a_at) / RFU OR2T12 /// OR2T33 /// OR2T8 (11738714_s_at) / Fold change /veh OR2T12 /// OR2T33 /// OR2T8 (11738714_s_at) / RFU VCAN (11748164_a_at) / Fold change /veh VCAN (11748164_a_at) / RFU JSRP1 (11732532_at) / Fold change /veh JSRP1 (11732532_at) / RFU KRTAP10-11 (11738290_x_at) / Fold change /veh KRTAP10-11 (11738290_x_at) / RFU MYO3A (11730013_a_at) / Fold change /veh MYO3A (11730013_a_at) / RFU EBF3 (11725865_a_at) / Fold change /veh EBF3 (11725865_a_at) / RFU CAMK2N1 (11719241_x_at) / Fold change /veh CAMK2N1 (11719241_x_at) / RFU C5orf56 (11738088_a_at) / Fold change /veh C5orf56 (11738088_a_at) / RFU OLFML3 (11715873_a_at) / Fold change /veh OLFML3 (11715873_a_at) / RFU LOC100653217 /// NTM (11731650_a_at) / Fold change /veh LOC100653217 /// NTM (11731650_a_at) / RFU MAPK11 (11762145_a_at) / Fold change /veh MAPK11 (11762145_a_at) / RFU FIZ1 (11724087_x_at) / Fold change /veh FIZ1 (11724087_x_at) / RFU OASL (11726364_x_at) / Fold change /veh OASL (11726364_x_at) / RFU SOX15 (11748057_x_at) / Fold change /veh SOX15 (11748057_x_at) / RFU CD79A (11719716_a_at) / Fold change /veh CD79A (11719716_a_at) / RFU HIST1H1D (11736915_at) / Fold change /veh HIST1H1D (11736915_at) / RFU CASKIN2 (11723855_a_at) / Fold change /veh CASKIN2 (11723855_a_at) / RFU LOC730098 (11760151_x_at) / Fold change /veh LOC730098 (11760151_x_at) / RFU OR4N2 (11742367_at) / Fold change /veh OR4N2 (11742367_at) / RFU PRRT2 (11749266_a_at) / Fold change /veh PRRT2 (11749266_a_at) / RFU SNX32 (11753110_a_at) / Fold change /veh SNX32 (11753110_a_at) / RFU CDHR5 (11726645_a_at) / Fold change /veh CDHR5 (11726645_a_at) / RFU RCAN1 (11760418_a_at) / Fold change /veh RCAN1 (11760418_a_at) / RFU FAM167A (11723789_a_at) / Fold change /veh FAM167A (11723789_a_at) / RFU FAM26E (11764081_at) / Fold change /veh FAM26E (11764081_at) / RFU ISYNA1 (11749810_s_at) / Fold change /veh ISYNA1 (11749810_s_at) / RFU ACY1 (11761880_at) / Fold change /veh ACY1 (11761880_at) / RFU 11764098_at / Fold change /veh 11764098_at / RFU SAMD14 (11745864_x_at) / Fold change /veh SAMD14 (11745864_x_at) / RFU NPB (11741838_a_at) / Fold change /veh NPB (11741838_a_at) / RFU TMPRSS6 (11731388_a_at) / Fold change /veh TMPRSS6 (11731388_a_at) / RFU KRTAP10-2 (11738614_at) / Fold change /veh KRTAP10-2 (11738614_at) / RFU ARHGAP8 /// PRR5-ARHGAP8 (11727945_x_at) / Fold change /veh ARHGAP8 /// PRR5-ARHGAP8 (11727945_x_at) / RFU KRTAP5-7 /// NADSYN1 (11734609_at) / Fold change /veh KRTAP5-7 /// NADSYN1 (11734609_at) / RFU RASL12 (11751679_a_at) / Fold change /veh RASL12 (11751679_a_at) / RFU CDKN2B (11736163_a_at) / Fold change /veh CDKN2B (11736163_a_at) / RFU PRF1 (11729649_at) / Fold change /veh PRF1 (11729649_at) / RFU, ZNF638 /// ZNF638-IT1 / Fold change vs veh, ZNF638 /// ZNF638-IT1 / RFU, PANK3 / Fold change vs veh, PANK3 / RFU, SH3YL1 / Fold change vs veh, SH3YL1 / RFU, ZEB2 / Fold change vs veh, ZEB2 / RFU, NRIP1 / Fold change vs veh, NRIP1 / RFU, PTTG1IP / Fold change vs veh, PTTG1IP / RFU, CAPN2 / Fold change vs veh, CAPN2 / RFU, MED14 / Fold change vs veh, MED14 / RFU, SNORA58 / Fold change vs veh, SNORA58 / RFU, C1orf63 / Fold change vs veh, C1orf63 / RFU, LRRFIP1 / Fold change vs veh, LRRFIP1 / RFU, NDUFAF7 / Fold change vs veh, NDUFAF7 / RFU, SLC12A2 / Fold change vs veh, SLC12A2 / RFU, IBTK / Fold change vs veh, IBTK / RFU, ESF1 / Fold change vs veh, ESF1 / Fold change vs veh, TMEM50B / RFU, TAOK1 / Fold change vs veh, TAOK1 / RFU, ACBD3 / Fold change vs veh, ACBD3 / RFU, TMA16 / Fold change vs veh, TMA16 / RFU, RWDD3 / Fold change vs veh, RWDD3 / RFU, BCAT1 / Fold change vs veh, BCAT1 / RFU, EDEM3 / Fold change vs veh, EDEM3 / RFU, TMEM33 / Fold change vs veh, TMEM33 / RFU, WDR75 / Fold change vs veh, WDR75 / RFU, AHCTF1 / Fold change vs veh, AHCTF1 / RFU, TFRC / Fold change vs veh, TFRC / RFU, ZDHHC17 / Fold change vs veh, ZDHHC17 / RFU, NOM1 / Fold change vs veh, NOM1 / RFU, ARL8B / Fold change vs veh, ARL8B / RFU, ZBTB11 / Fold change vs veh, ZBTB11 / RFU, TAMM41 / Fold change vs veh, TAMM41 / RFU, KIAA1704 /// LOC100996395 / Fold change vs veh, KIAA1704 /// LOC100996395 / RFU, ING1 / Fold change vs veh, ING1 / RFU, TRMT61B / Fold change vs veh, TRMT61B / RFU, FUBP3 / Fold change vs veh, FUBP3 / RFU, TP53 / Fold change vs veh, TP53 / RFU, TNKS2 / Fold change vs veh, TNKS2 / RFU, ZFP14 / Fold change vs veh, ZFP14 / RFU, ACTR2 / Fold change vs veh, ACTR2 / RFU, PPP3R1 / Fold change vs veh, PPP3R1 / RFU, PIK3R1 / Fold change vs veh, PIK3R1 / RFU, HNRNPA1 / Fold change vs veh, HNRNPA1 / RFU, RNF170 / Fold change vs veh, RNF170 / RFU, ZNF28 / Fold change vs veh, ZNF28 / RFU, RNGTT / Fold change vs veh, RNGTT / RFU, OGT / Fold change vs veh, OGT / RFU, BRD1 / Fold change vs veh, BRD1 / RFU, MARS / Fold change vs veh, MARS / RFU, ZNF655 / Fold change vs veh, ZNF655 / RFU, FAHD1 / Fold change vs veh, FAHD1 / RFU, BDP1 / Fold change vs veh, BDP1 / RFU, LRRCC1 / Fold change vs veh, LRRCC1 / RFU, ARID1A / Fold change vs veh, ARID1A / RFU, ZNF146 / Fold change vs veh, ZNF146 / RFU, ZNF330 / Fold change vs veh, ZNF330 / RFU, GPN3 / Fold change vs veh, GPN3 / RFU, C9orf123 / Fold change vs veh, C9orf123 / RFU, N4BP2L2 / Fold change vs veh, N4BP2L2 / RFU, ARFIP1 / Fold change vs veh, ARFIP1 / RFU, FAM179B / Fold change vs veh, FAM179B / RFU, BCL10 / Fold change vs veh, BCL10 / RFU, UHRF1BP1L / Fold change vs veh, UHRF1BP1L / RFU, BET1 / Fold change vs veh, BET1 / RFU, CNOT2 / Fold change vs veh, CNOT2 / RFU, ZNF268 / Fold change vs veh, ZNF268 / Fold change vs veh, ZNF507 / RFU, DGCR2 / Fold change vs veh, DGCR2 / RFU, WDSUB1 / Fold change vs veh, WDSUB1 / Fold change vs veh, HSP90B1 /// MIR3652 / RFU, ADSS / Fold change vs veh, ADSS / RFU, GK / Fold change vs veh, GK / RFU, ZNF148 / Fold change vs veh, ZNF148 / RFU, TAF9 / Fold change vs veh, TAF9 / RFU, SLC1A5 / Fold change vs veh, SLC1A5 / RFU, SLMO2 / Fold change vs veh, SLMO2 / RFU, ABCC4 / Fold change vs veh, ABCC4 / RFU, LOC101060439 /// RAP1B / Fold change vs veh, LOC101060439 /// RAP1B / RFU, RFX7 / Fold change vs veh, RFX7 / RFU, GTPBP10 / Fold change vs veh, GTPBP10 / RFU, CNEP1R1 / Fold change vs veh, CNEP1R1 / RFU, BIVM-ERCC5 /// ERCC5 / Fold change vs veh, BIVM-ERCC5 /// ERCC5 / RFU, ILF3 / Fold change vs veh, ILF3 / RFU 11762660_at / Fold change /veh 11762660_at / RFU VCAN (11757783_s_at) / Fold change /veh VCAN (11757783_s_at) / RFU DDX43 (11728927_at) / Fold change /veh DDX43 (11728927_at) / RFU KRT8 (11758188_x_at) / Fold change /veh KRT8 (11758188_x_at) / RFU NKD1 (11759106_at) / Fold change /veh NKD1 (11759106_at) / RFU SRD5A1 (11742802_a_at) / Fold change /veh SRD5A1 (11742802_a_at) / RFU TPSAB1 /// TPSB2 (11721975_s_at) / Fold change /veh TPSAB1 /// TPSB2 (11721975_s_at) / RFU GSTM3 (11746129_a_at) / Fold change /veh GSTM3 (11746129_a_at) / RFU IL23R (11737362_x_at) / Fold change /veh IL23R (11737362_x_at) / RFU TMEM51 (11727254_a_at) / Fold change /veh TMEM51 (11727254_a_at) / RFU PIWIL2 (11732686_x_at) / Fold change /veh PIWIL2 (11732686_x_at) / RFU ORM1 (11744905_x_at) / Fold change /veh ORM1 (11744905_x_at) / RFU CCDC152 (11743942_at) / Fold change /veh CCDC152 (11743942_at) / RFU ECM1 (11717891_a_at) / Fold change /veh ECM1 (11717891_a_at) / RFU IL23R (11748794_a_at) / Fold change /veh IL23R (11748794_a_at) / RFU TNFAIP8L3 (11732012_x_at) / Fold change /veh TNFAIP8L3 (11732012_x_at) / RFU MBOAT4 (11741988_at) / Fold change /veh MBOAT4 (11741988_at) / RFU 11764193_at / Fold change /veh 11764193_at / RFU TMEM53 (11763286_at) / Fold change /veh TMEM53 (11763286_at) / RFU MAGEB2 (11727129_at) / Fold change /veh MAGEB2 (11727129_at) / RFU TMEM200A (11744735_a_at) / Fold change /veh TMEM200A (11744735_a_at) / RFU CCDC152 (11751479_a_at) / Fold change /veh CCDC152 (11751479_a_at) / RFU FAM211A (11726209_a_at) / Fold change /veh FAM211A (11726209_a_at) / RFU RGS16 (11746705_a_at) / Fold change /veh RGS16 (11746705_a_at) / RFU VCAN (11755009_s_at) / Fold change /veh VCAN (11755009_s_at) / RFU RHOB (11743442_s_at) / Fold change /veh RHOB (11743442_s_at) / RFU RGS16 (11720943_a_at) / Fold change /veh RGS16 (11720943_a_at) / RFU RGS16 (11720944_at) / Fold change /veh RGS16 (11720944_at) / RFU, VPS4B / Fold change vs veh, VPS4B / RFU, CREB1 / Fold change vs veh, CREB1 / RFU, DNAJC13 / Fold change vs veh, DNAJC13 / RFU, GNAQ / Fold change vs veh, GNAQ / RFU, CDK5R1 / Fold change vs veh, CDK5R1 / RFU, ZRANB3 / Fold change vs veh, ZRANB3 / RFU, CUL4A / Fold change vs veh, CUL4A / RFU, CCNY / Fold change vs veh, CCNY / RFU, UFL1 / Fold change vs veh, UFL1 / RFU, COG3 / Fold change vs veh, COG3 / RFU, DIAPH2 / Fold change vs veh, DIAPH2 / RFU, SKA2 / Fold change vs veh, SKA2 / RFU, AFF3 / Fold change vs veh, AFF3 / RFU, LMF1 / Fold change vs veh, LMF1 / RFU, IPO11 / Fold change vs veh, IPO11 / RFU, DFFB / Fold change vs veh, DFFB / RFU, FOXP1 / Fold change vs veh, FOXP1 / RFU, CARD8 / Fold change vs veh, CARD8 / RFU, STRN3 / Fold change vs veh, STRN3 / RFU, ADK / Fold change vs veh, ADK / RFU, RASSF2 / Fold change vs veh, RASSF2 / RFU, WIPF1 / Fold change vs veh, WIPF1 / RFU, LARP1B / Fold change vs veh, LARP1B / RFU, RASA1 / Fold change vs veh, RASA1 / RFU, RB1 / Fold change vs veh, RB1 / RFU, PPFIA1 / Fold change vs veh, PPFIA1 / RFU, MAT2A / Fold change vs veh, MAT2A / RFU, CCT5 / Fold change vs veh, CCT5 / RFU, WDR92 / Fold change vs veh, WDR92 / RFU, CUX1 / Fold change vs veh, CUX1 / RFU, TTC7A / Fold change vs veh, TTC7A / RFU, TMEM135 / Fold change vs veh, TMEM135 / RFU, DEPTOR / Fold change vs veh, DEPTOR / RFU, CPM / Fold change vs veh, CPM / RFU, DNAJB6 / Fold change vs veh, DNAJB6 / RFU, CACNA2D3 / Fold change vs veh, CACNA2D3 / RFU, DTX4 / Fold change vs veh, DTX4 / RFU, TFCP2 / Fold change vs veh, TFCP2 / RFU, GMCL1 /// GMCL1P1 / Fold change vs veh, GMCL1 /// GMCL1P1 / RFU, AEBP2 / Fold change vs veh, AEBP2 / RFU, SNHG1 /// SNORD22 /// SNORD25 /// SNORD26 /// SNORD27 /// SNORD28 /// SNORD29 /// SNORD31 / Fold change vs veh, SNHG1 /// SNORD22 /// SNORD25 /// SNORD26 /// SNORD27 /// SNORD28 /// SNORD29 /// SNORD31 / Fold change (Aza/veh), C12orf56 (ProbeSet 11735607_a_at) / Fold change (ACY-1035/veh), C12orf56 (ProbeSet 11735607_a_at) / Fold change (Aza/veh), FGFR1OP (ProbeSet 11751329_s_at) / Fold change (ACY-1035/veh), FGFR1OP (ProbeSet 11751329_s_at) / Fold change (Aza/veh), VPS36 (ProbeSet 11739960_a_at) / Fold change (ACY-1035/veh), VPS36 (ProbeSet 11739960_a_at) / RFU SYPL1 (11715823_x_at) / Fold change /veh SYPL1 (11715823_x_at) / RFU IGFBP7 (11715501_s_at) / Fold change /veh IGFBP7 (11715501_s_at) / RFU REEP3 (11722064_at) / Fold change /veh REEP3 (11722064_at) / RFU IGLL1 (11728026_x_at) / Fold change /veh IGLL1 (11728026_x_at): dose or concentration left out as unconfirmed. The following applies: ProbeSet 11740011_at; LIST B.

Regarding `Nc1ccc(-c2cccs2)cc1NC(=O)c1ccc2c(c1)cc(C1CC1)n2CCN1CCOCC1` [ACY-1035], the “RFU, ZFP14” value turned out to be 75.53 RFU.
